Data published in BindingDB's records for doi:10.7270/Q2ZP44JJ (Burnham Center For Chemical Genomics, 2009).

Target: T1, Tyrosine-protein phosphatase non-receptor type 22 (Homo sapiens, UniProt Q9Y2R2)
T1 sequence (Q9Y2R2 whole entry): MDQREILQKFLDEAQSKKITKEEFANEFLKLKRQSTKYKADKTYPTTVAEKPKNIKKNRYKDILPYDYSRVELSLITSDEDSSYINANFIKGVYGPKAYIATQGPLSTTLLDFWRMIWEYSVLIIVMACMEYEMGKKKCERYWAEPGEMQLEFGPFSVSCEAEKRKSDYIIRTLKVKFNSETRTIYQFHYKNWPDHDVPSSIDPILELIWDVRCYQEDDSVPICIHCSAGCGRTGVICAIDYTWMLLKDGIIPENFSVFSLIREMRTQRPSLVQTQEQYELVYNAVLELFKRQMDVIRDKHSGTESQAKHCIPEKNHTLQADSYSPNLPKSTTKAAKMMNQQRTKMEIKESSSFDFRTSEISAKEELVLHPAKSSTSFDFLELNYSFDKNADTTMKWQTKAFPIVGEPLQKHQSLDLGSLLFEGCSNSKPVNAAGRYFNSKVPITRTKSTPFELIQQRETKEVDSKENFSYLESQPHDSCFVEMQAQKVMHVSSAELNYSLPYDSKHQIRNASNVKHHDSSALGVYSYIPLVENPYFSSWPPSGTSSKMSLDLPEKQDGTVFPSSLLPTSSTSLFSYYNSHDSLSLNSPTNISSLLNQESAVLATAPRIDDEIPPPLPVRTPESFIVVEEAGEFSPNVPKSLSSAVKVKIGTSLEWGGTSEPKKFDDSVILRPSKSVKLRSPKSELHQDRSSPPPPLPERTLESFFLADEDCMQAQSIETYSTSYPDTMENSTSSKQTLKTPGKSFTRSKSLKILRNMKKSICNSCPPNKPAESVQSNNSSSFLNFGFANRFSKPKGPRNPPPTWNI
Test: PubChem AID 2140

IC50: 43.4 µM
SMILES: CCOc1ccc2nc(NC(=O)CSc3cc(O)c4c(C)c(C)sc4n3)sc2c1 [2-[(2,3-dimethyl-4-oxidanylidene-5H-thieno[2,3-b]pyridin-6-yl)sulfanyl]-N-(6-ethoxy-1,3-benzothiazol-2-yl)ethanamide]
